The values that follow come from patent US9334263B2, “Compositions useful for treating disorders related to kit” (BLUEPRINT MEDICINES CORPORATION, priority 2013, dated 2016).

Experiment [1] concerns the target T1, Kit D816V (HMC1.2 cells, Kit V560G and D816V) (Homo sapiens, UniProt P10721, D816V/V560G).
T1 construct: endogenous in cells; host or cells: HMC1.2 cells
As to the kind of experiment: HMC1.2 autophosphorylation assay (AlphaLISA, phospho-Y719 c-Kit). Type of experiment: cell-based. Particulars: Kit autophosphorylation at tyrosine 719, 90 minutes, read-out: Cellular Activity. Here is the method: HMC1.2 Autophosphorylation Assay:
10,000 HMC1.2 cells were incubated in 22 ul culture media (phenol-red free IMDM, no serum) in each well of a 384-well plate and serum starved overnight in a tissue culture incubator (5% CO2, 37° C.). A 10-point dose concentration series of compound (25 uM-95.4 pM) were then added to the cells in a volume of 3.1 ul to each well (0.25% DMSO final concentration). After 90 minutes, 6 ul of 5× AlphaLISA Lysis Buffer (Perkin Elmer) supplemented with a protease and phosphatase inhibitor cocktail (Cell Signaling Technologies) was added to each well and shaken at 450 rpm for 15 minutes at 4° C. 10 ul of phospho-Y719 c-Kit and total c-Kit antibodies (15 nM final concentration, Cell Signaling Technologies) and 50 ug/ml AlphaLISA rabbit acceptor beads (Perkin Elmer) were added to each well and shaken at 300 rpm at room temperature for 2 hours. 10 ul of 100 ug/ml streptavidin donor beads (Perkin Elmer) were added to each well, blocked from light with aluminum adhesive and shaken at 300 rpm at room temperature for 2 hours. Fluorescence signal was obtained on Envision (Perkin Elmer) by AlphaScreen 384 well HTS protocol.
This cell line contains Kit mutated at positions V560G and D816V resulting in constitutive activation of the kinase. The following compounds were tested in an assay to measure direct inhibition of Kit D816V kinase activity by assaying Kit autophosphorylation at tyrosine 719 on the Kit protein.

Experiment [2] addresses T2, D816V Kit (Homo sapiens, UniProt P10721, D816V).
T2 construct: purchased Carna Bioscience 08-156
As to the kind of experiment: Kit D816V assay at Km (Caliper electrophoretic mobility shift). Type of experiment: biochemical. The settings on record: 15 uM ATP, 25 C, 90 minutes. As to the method: In order to assess the activity of chemical compounds against the relevant kinase of interest, the Caliper LifeSciences electrophoretic mobility shift technology platform is used. Fluorescently labeled substrate peptide is incubated in the presence of kinase and ATP so that a […] proportion of the peptide is phosphorylated. At the end of the reaction, the mix of phosphorylated (product) and non-phosphorylated (substrate) peptides are passed through the microfluidic system of the Caliper EZ Reader 2, under an applied potential difference. The presence of the phosphate group on the product peptide provides a difference in mass and charge between those of the substrate peptide, resulting in a separation of the substrate and product pools in the sample. As the pools pass a LEDS within the instrument, these pools are detected and resolved as separate peaks. The ratio between these peaks therefore reflects the activity of the chemical matter at that concentration in that well, under those conditions.
The reaction was stopped by the addition of 70 ul of Stop buffer (100 mM HEPES pH 7.5, 0.015% Brij 35, 35 mM EDTA and 0.2% of Coating Reagent 3 (Caliper Lifesciences)). The plate was then read on a Caliper EZReader 2 (protocol settings: −1.9 psi, upstream voltage −700, downstream voltage −3000, post sample sip 35 s).

T2 sequence (P10721 26-976 D816V): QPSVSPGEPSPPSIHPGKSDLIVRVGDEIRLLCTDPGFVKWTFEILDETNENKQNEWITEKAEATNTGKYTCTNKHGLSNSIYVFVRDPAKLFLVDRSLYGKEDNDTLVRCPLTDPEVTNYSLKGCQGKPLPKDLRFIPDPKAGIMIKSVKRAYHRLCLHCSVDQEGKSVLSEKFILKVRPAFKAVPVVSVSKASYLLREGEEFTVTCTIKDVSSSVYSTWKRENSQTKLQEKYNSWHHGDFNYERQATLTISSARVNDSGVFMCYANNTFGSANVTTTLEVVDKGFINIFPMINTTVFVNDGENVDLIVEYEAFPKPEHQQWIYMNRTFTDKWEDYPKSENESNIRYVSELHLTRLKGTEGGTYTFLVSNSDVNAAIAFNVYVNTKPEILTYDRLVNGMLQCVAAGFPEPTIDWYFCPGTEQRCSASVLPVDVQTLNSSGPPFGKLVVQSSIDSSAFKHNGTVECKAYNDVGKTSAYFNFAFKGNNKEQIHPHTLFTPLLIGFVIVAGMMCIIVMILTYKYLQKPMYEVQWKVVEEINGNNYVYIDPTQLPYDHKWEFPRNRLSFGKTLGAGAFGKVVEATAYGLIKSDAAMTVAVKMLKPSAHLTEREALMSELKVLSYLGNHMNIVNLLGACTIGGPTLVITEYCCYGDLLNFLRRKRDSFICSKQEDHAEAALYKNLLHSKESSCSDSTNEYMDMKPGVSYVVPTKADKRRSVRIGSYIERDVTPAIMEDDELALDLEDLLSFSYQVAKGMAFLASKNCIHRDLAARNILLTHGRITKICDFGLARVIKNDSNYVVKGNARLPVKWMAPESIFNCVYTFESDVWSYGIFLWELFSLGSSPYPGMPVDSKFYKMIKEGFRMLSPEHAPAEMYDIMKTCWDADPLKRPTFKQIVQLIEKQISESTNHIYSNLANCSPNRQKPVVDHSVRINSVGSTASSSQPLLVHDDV
T1 sequence (P10721 26-976 V560G/D816V): as the sequence (P10721 26-976 D816V) above, with V535G counted along it

Turning to `Cn1cc(Nc2ncnc(N3CCN(c4ncc([C@@](C)(O)c5ccc(F)cc5)cn4)CC3)n2)cn1` (single isomer, unassigned) [Compound 38], the IC50 in experiment [1] was 10 to 100 nM; in experiment [2] it was below 1 nM.

For `C[C@@](O)(c1ccc(F)cc1)c1cnc(N2CCN(c3ncnc(Nc4cnn(C[C@@H]5CNCCO5)c4)n3)CC2)nc1` (single isomer, unassigned) [Compound 270], the IC50 in experiment [2] lay within 1.01 to 10 nM.

As to `CNc1ncnc(N2CCN(c3ncc(Cc4ccccc4)c(N)n3)CC2)n1` [Compound 1], in experiment [2], the IC50 is above 100 nM.

Regarding `c1cnc(N2CCN(c3ncnc(Nc4ccc5c(c4)CNCC5)n3)CC2)nc1` [Compound 2], the results for the IC50 in experiment [1] and in experiment [2] were 1000 to 10000 nM and 1.01 to 10 nM, respectively.

Turning to `Nc1nc(N2CCN(c3ncnc(NC4CC4)n3)CC2)ncc1Cc1ccccc1` [Compound 3], the IC50 in experiment [2] was above 100 nM.

Turning to `c1cnc(N2CCN(c3ncnc(Nc4cnn(C[C@@H]5CNCCO5)c4)n3)CC2)nc1` [Compound 6], the IC50 is above 10000 nM in experiment [1] and above 100 nM in experiment [2].

`Clc1ncc(N2CCN(c3ncnc(Nc4ccc5c(c4)CNCC5)n3)CC2)nn1` [Compound 8]: the IC50 in experiment [2] is 10 to 100 nM.

Regarding `Cc1cc(Nc2ncnc(N3CCN(c4ncc(Cc5ccccc5)cn4)CC3)n2)no1` [Compound 11], the IC50 in experiment [2] lay within 10 to 100 nM.

For the molecule `COc1cc(Nc2ncnc(N3CCN(c4ncc(Cc5ccccc5)cn4)CC3)n2)ccn1` [Compound 17], the values for the IC50 in experiment [1] and in experiment [2] were 1000 to 10000 nM and 1.01 to 10 nM, respectively.

For the molecule `Clc1ncc(N2CCN(c3ncnc(Nc4cnn(CC5CNCCO5)c4)n3)CC2)nn1` (centres unmarked) [Compound 18], the IC50 in experiment [1] was above 10000 nM; in experiment [2], above 100 nM.

`c1nc(Nc2cnn(CC3CNCCO3)c2)nc(N2CCN(c3ncc(C4CC4)cn3)CC2)n1` (centres unmarked) [Compound 19]: the IC50 was above 10000 nM in experiment [1] and 10 to 100 nM in experiment [2].

Take `Cc1[nH]ncc1Nc1ncnc(N2CCN(c3ncc(Sc4ccccc4F)cn3)CC2)n1` [Compound 20]: the results for the IC50 in experiment [1] and in experiment [2] were 10 to 100 nM and below 1 nM, respectively.

Regarding `c1ccc(Cc2cnc(N3CCN(c4ncnc(Nc5ccc6cn[nH]c6c5)n4)CC3)nc2)cc1` [Compound 21], the results for the IC50 in experiment [1] and in experiment [2] were 100 to 1000 nM and 1.01 to 10 nM, respectively.

In the case of `c1ccc(Cc2cnc(N3CCN(c4ncnc(Nc5cnn(C6CNC6)c5)n4)CC3)nc2)cc1` [Compound 27], the IC50 in experiment [1] was 10 to 100 nM; in experiment [2], 1.01 to 10 nM.

`c1ccc(Cc2cnc(N3CCN(c4ncnc(Nc5cnn(C6COC6)c5)n4)CC3)nc2)cc1` [Compound 28]: the IC50 is 10 to 100 nM in experiment [1] and below 1 nM in experiment [2].

With `C[C@](N)(c1ccc(F)cc1)c1cnc(N2CCN(c3ncnc(Nc4ccccc4)n3)CC2)nc1` [Compound 29], the values for the IC50 in experiment [1] and in experiment [2] were 10 to 100 nM and below 1 nM, respectively.

Turning to `C[C@@H](O)Cn1cc(Nc2ncnc(N3CCN(c4ncc(Cc5ccccc5)cn4)CC3)n2)cn1` [Compound 32], the IC50 in experiment [1] was in the range of 10 to 100 nM; in experiment [2] it was 1.01 to 10 nM.

`C[C@H](O)Cn1cc(Nc2ncnc(N3CCN(c4ncc(Cc5ccccc5)cn4)CC3)n2)cn1` [Compound 33]: the IC50 was 10 to 100 nM in experiment [1] and 1.01 to 10 nM in experiment [2].

On to `Nc1nc(N2CCN(c3ncnc(Nc4cnn(CC5CNCCO5)c4)n3)CC2)ncc1Cl` (centres unmarked) [Compound 34], for which the IC50 in experiment [1] lay in the range of 1000 to 10000 nM; in experiment [2], 10 to 100 nM.

Consider `CN1CCC(CCNc2ncnc(N3CCN(c4ncc(Cc5ccccc5)cn4)CC3)n2)CC1` [Compound 35], for which the IC50 in experiment [1] is above 10000 nM; in experiment [2] it was above 100 nM.

Consider `Cn1cc(Nc2ncnc(N3CCN(c4ncc([C@@](C)(N)c5ccc(F)cc5)cn4)CC3)n2)cn1` [Compound 36], for which the IC50 in experiment [1] was below 10 nM; in experiment [2] it was below 1 nM.

`Cn1cc(Nc2ncnc(N3CCN(c4ncc([C@](C)(O)c5ccc(F)cc5)cn4)CC3)n2)cn1` [Compound 39]: the IC50 was 10 to 100 nM in experiment [1] and below 1 nM in experiment [2].

In the case of `c1cncc(Cc2cnc(N3CCN(c4ncnc(Nc5ccc6c(c5)CNCC6)n4)CC3)nc2)c1` [Compound 45], the results for the IC50 in experiment [1] and in experiment [2] were 10 to 100 nM and 1.01 to 10 nM, respectively.

`OCC(O)c1ccc(Nc2ncnc(N3CCN(c4ncc(Cc5ccccc5)cn4)CC3)n2)cc1` (centres unmarked) [Compound 55]: the IC50 in experiment [1] is 10 to 100 nM; in experiment [2] it was below 1 nM.

Take `OCCNc1ccc(Nc2ncnc(N3CCN(c4ncc(Cc5ccccc5)cn4)CC3)n2)cn1` [Compound 58]: the results for the IC50 in experiment [1] and in experiment [2] were 100 to 1000 nM and 1.01 to 10 nM, respectively.

Take `CC(C)(O)Cn1cc(Nc2ncnc(N3CCN(c4ncc(Cc5ccccc5)cn4)CC3)n2)cn1` [Compound 62]: the IC50 in experiment [1] was 10 to 100 nM; in experiment [2], below 1 nM.

As to `C(#CC1CC1)c1cnc(N2CCN(c3ncnc(Nc4cnn(C[C@@H]5CNCCO5)c4)n3)CC2)nc1` [Compound 63, (S)-4-(4-(5-(cyclopropylethynyl)pyrimidin-2-yl)piperazin-1-yl)-N-(1-(morpholin-2-ylmethyl)-1H-pyrazol-4-yl)-1,3,5-triazin-2-amine], in experiment [2], the IC50 was above 100 nM.

As for `OC[C@@H](O)Cn1cc(Nc2ncnc(N3CCN(c4ncc(Cc5ccccc5)cn4)CC3)n2)cn1` [Compound 65], the IC50 was 10 to 100 nM in experiment [1] and below 1 nM in experiment [2].

Turning to `OC[C@H](O)Cn1cc(Nc2ncnc(N3CCN(c4ncc(Cc5ccccc5)cn4)CC3)n2)cn1` [Compound 66], the figures for the IC50 in experiment [1] and in experiment [2] were 10 to 100 nM and below 1 nM, respectively.

In the case of `c1nc(Nc2cnn(C[C@@H]3CNCCO3)c2)nc(N2CCN(c3ncc(CCC4CC4)cn3)CC2)n1` [Compound 67], the IC50 in experiment [2] lay within 10 to 100 nM.

As to `Cc1nc(N2CCN(c3ncnc(Nc4ccc5c(c4)CNCC5)n3)CC2)ncc1Cc1ccccc1` [Compound 70], the results for the IC50 in experiment [1] and in experiment [2] were 100 to 1000 nM and 1.01 to 10 nM, respectively.

`CC(c1ccccc1)c1cnc(N2CCN(c3ncnc(Nc4ccc5c(c4)CNCC5)n3)CC2)nc1` (centres unmarked) [Compound 71]: the IC50 is 10 to 100 nM in experiment [1] and below 1 nM in experiment [2].

As for `c1ccc(Cc2cnc(N3CCN(c4ncnc(Nc5ccc6c(c5)CCCNC6)n4)CC3)nc2)cc1` [Compound 72], the IC50 in experiment [1] was 10 to 100 nM; in experiment [2] it was below 1 nM.

As to `c1ccc(Cc2cnc(N3CCN(c4ncnc(Nc5ccc(OC6CNC6)cc5)n4)CC3)nc2)cc1` [Compound 77], the IC50 in experiment [1] lay within 10 to 100 nM; in experiment [2], 1.01 to 10 nM.

In the case of `Nc1nc(N2CCN(c3ncnc(Nc4cnc5c(c4)CNCC5)n3)CC2)ncc1Cc1ccccc1` [Compound 78], the IC50 is 10 to 100 nM in experiment [1] and below 1 nM in experiment [2].

In the case of `OC1(c2ccc(Nc3ncnc(N4CCN(c5ncc(Cc6ccccc6)cn5)CC4)n3)cc2)COC1` [Compound 79], the results for the IC50 in experiment [1] and in experiment [2] were 10 to 100 nM and 1.01 to 10 nM, respectively.

On to `Fc1cccc(Cc2cnc(N3CCN(c4ncnc(Nc5ccc6c(c5)CNCC6)n4)CC3)nc2)c1` [Compound 80], for which the figures for the IC50 in experiment [1] and in experiment [2] were 10 to 100 nM and 1.01 to 10 nM, respectively.

With `C[C@H](O)CNc1ccc(Nc2ncnc(N3CCN(c4ncc(Cc5ccccc5)cn4)CC3)n2)cc1` [Compound 81], the IC50 is 10 to 100 nM in experiment [1] and below 1 nM in experiment [2].

In the case of `C[C@@H](O)CNc1ccc(Nc2ncnc(N3CCN(c4ncc(Cc5ccccc5)cn4)CC3)n2)cc1` [Compound 82], the IC50 in experiment [1] was 10 to 100 nM; in experiment [2] it was below 1 nM.

For `Nc1nc(N2CCN(c3ncnc(Nc4cnn(CC5CN(C=O)CCO5)c4)n3)CC2)ncc1Cl` (centres unmarked) [Compound 90], in experiment [2], the IC50 is 10 to 100 nM.

For `CC(O)c1ccc(Nc2ncnc(N3CCN(c4ncc([C@@](C)(N)c5ccc(F)cc5)cn4)CC3)n2)cc1` (some centres unmarked) [Compound 140], in experiment [2], the IC50 was below 1 nM.

For the molecule `Cc1c(Nc2ncnc(N3CCN(c4ncc(Br)cn4)CC3)n2)cnn1C[C@@H]1CNCCO1` [Compound 142], the IC50 in experiment [2] was in the range of 10 to 100 nM.

For the molecule `C[C@@H]1CN(c2ncnc(Nc3cnn(C[C@@H]4CNCCO4)c3)n2)CCN1c1ncc(Br)c(N)n1` [Compound 194], the IC50 in experiment [2] lay within 10 to 100 nM.

On to `OC[C@H]1CN(c2ncnc(Nc3cnn(CC4CNCCO4)c3)n2)CCN1c1ncc(Cc2ccccc2)cn1` (some centres unmarked) [Compound 247], for which the IC50 in experiment [2] lay within 10 to 100 nM.

Take `FC(F)(c1ccccc1)c1cnc(N2CCN(c3ncnc(Nc4cnn(C[C@@H]5CNCCO5)c4)n3)CC2)nc1` [Compound 254]: in experiment [2], the IC50 is 1.01 to 10 nM.
